Values after ≈ are worked out from the molar mass of the structure shown.
Legend:
[1] = Metabolic stability assessed as half life in human liver microsome; type: ADME; conditions: liver microsomes
[2] = Solubility in japanese pharmacopoeia second fluid at pH 6.8; type: physicochemical
[3] = Metabolic stability assessed as intrinsic clearance in human liver microsome; type: ADME; conditions: liver microsomes
Plasma = experiment: Anticoagulant activity in human plasma assessed as concentration required to double prothrombin time; type: functional
Coagulation factor X = Coagulation factor X (Homo sapiens, UniProt P00742); experiment: Inhibition of human factor 10a
Sequence of Coagulation factor X (P00742 41-179 limits assumed): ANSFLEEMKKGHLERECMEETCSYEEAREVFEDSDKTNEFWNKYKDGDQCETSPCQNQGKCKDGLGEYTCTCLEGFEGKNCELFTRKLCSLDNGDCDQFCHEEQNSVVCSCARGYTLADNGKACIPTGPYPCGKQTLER
Sequence of Coagulation factor X (P00742 235-488 limits assumed): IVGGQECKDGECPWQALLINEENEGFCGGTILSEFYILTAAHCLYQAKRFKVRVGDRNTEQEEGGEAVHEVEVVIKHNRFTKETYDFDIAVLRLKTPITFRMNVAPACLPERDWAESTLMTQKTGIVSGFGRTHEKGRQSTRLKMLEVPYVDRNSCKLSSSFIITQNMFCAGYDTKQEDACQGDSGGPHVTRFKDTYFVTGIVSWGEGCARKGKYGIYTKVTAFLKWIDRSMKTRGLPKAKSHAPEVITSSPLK

Rattus norvegicus [4] = experiment: Ex vivo inhibition of factor 10a in Wistar rat plasma at 10 mg/kg, po after 1 hr; type: functional
Rattus norvegicus [5] = experiment: Ex vivo inhibition of factor 10a in Wistar rat plasma at 10 mg/kg, po after 2 hrs; type: functional
Rattus norvegicus [6] = experiment: Ex vivo inhibition of factor 10a in Wistar rat plasma at 10 mg/kg, po after 4 hrs; type: functional
Rattus norvegicus [7] = experiment: Ex vivo inhibition of factor 10a in Wistar rat plasma at 10 mg/kg, po after 0.5 hrs; type: functional
[8] = AUC (0 to 24 hrs) in monkey at 1.0 mg/kg, po; type: ADME, organism-based, Macaca mulatta; set-up: time < 24 hr, dose 1 mg/kg, route oral; conditions: rhesus monkey, plasma
[9] = Cmax in monkey at 1.0 mg/kg, po; type: ADME, organism-based, Macaca mulatta; set-up: dose 1 mg/kg, route oral; conditions: rhesus monkey, in vivo
[10] = Tmax in monkey at 1.0 mg/kg, po; type: ADME, organism-based, Macaca mulatta; set-up: dose 1 mg/kg, route oral; conditions: rhesus monkey, in vivo

half-life [1] [min]	solubility [2] [µg/mL]	CLint scaled [3] [mL/min/kg]	IC50 (Coagulation factor X) [nM]	Structure (SMILES)	Activity (Plasma) [µM]	further results
	66 (≈ 122 µM)		5.6	CC(C)C(=O)N1CC[C@H](NC(=O)c2cc3cc(Cl)ccc3[nH]2)[C@H](NC(=O)c2nc3c(s2)CN(C)CC3)C1	1.1	
	410 (≈ 772 µM)		9.3	CN1CCc2nc(C(=O)N[C@@H]3CN(C(=O)CO)CC[C@@H]3NC(=O)c3cc4cc(Cl)ccc4[nH]3)sc2C1	0.9	inhibition in vivo at 10 mg/kg (Rattus norvegicus [4]): -2%; inhibition in vivo at 10 mg/kg (Rattus norvegicus [5]): -2.5%; inhibition in vivo at 10 mg/kg (Rattus norvegicus [6]): -7.3%; inhibition in vivo at 10 mg/kg (Rattus norvegicus [7]): 0.76%
	130 (≈ 245 µM)		47	COCCN1CC[C@H](NC(=O)c2cc3cc(Cl)ccc3[nH]2)[C@H](NC(=O)c2nc3c(s2)CN(C)CC3)C1	3.8	
	160 (≈ 302 µM)		9	CCC(=O)N1CC[C@H](NC(=O)c2cc3cc(Cl)ccc3[nH]2)[C@H](NC(=O)c2nc3c(s2)CN(C)CC3)C1	0.78	
	56 (≈ 103 µM)			CN1CCc2nc(C(=O)N[C@@H]3CN(C(=O)N(C)C)CC[C@@H]3NC(=O)c3cc4cc(Cl)ccc4[nH]3)sc2C1		inhibition in vivo at 10 mg/kg (Rattus norvegicus [4]): 78.6%; inhibition in vivo at 10 mg/kg (Rattus norvegicus [5]): 73.7%; inhibition in vivo at 10 mg/kg (Rattus norvegicus [6]): 68.1%; inhibition in vivo at 10 mg/kg (Rattus norvegicus [7]): 80.2%
6.08		103		CCC(=O)N1CCC(NC(=O)c2cc3cc(Cl)ccc3[nH]2)C(NC(=O)c2nc3c(s2)CN(C)CC3)C1 (racemic)		
15.1		41.4		CN1CCc2nc(C(=O)NC3CN(C(=O)CO)CCC3NC(=O)c3cc4cc(Cl)ccc4[nH]3)sc2C1 (racemic)		
7.7	17 (≈ 36 µM)	81		CN1CCc2nc(C(=O)NC3CCCCC3NC(=O)c3cc4cc(Cl)ccc4[nH]3)sc2C1 (racemic)	4.4	
	290 (≈ 563 µM)		48	CC(=O)N1CCC(NC(=O)c2nc3c(s2)CN(C)CC3)C(NC(=O)c2cc3cc(Cl)ccc3[nH]2)C1 (racemic)	5.8	
4.53	43 (≈ 78.9 µM)	138	4.5	CCOC(=O)N1CCC(NC(=O)c2cc3cc(Cl)ccc3[nH]2)C(NC(=O)c2nc3c(s2)CN(C)CC3)C1 (racemic)	1.4	
	70 (≈ 127 µM)		45	CN1CCc2nc(C(=O)NC3CCN(S(C)(=O)=O)CC3NC(=O)c3cc4cc(Cl)ccc4[nH]3)sc2C1 (racemic)	8	
	830 (≈ 1750 µM)		530	CN1CCc2nc(C(=O)NC3CCNCC3NC(=O)c3cc4cc(Cl)ccc4[nH]3)sc2C1 (racemic)	>20	
6.36		98.1		CC(C)C(=O)N1CCC(NC(=O)c2cc3cc(Cl)ccc3[nH]2)C(NC(=O)c2nc3c(s2)CN(C)CC3)C1 (racemic)		
7.22		86.4		CCNC(=O)N1CCC(NC(=O)c2cc3cc(Cl)ccc3[nH]2)C(NC(=O)c2nc3c(s2)CN(C)CC3)C1 (racemic)		

The remaining lines, values behind:

Structure (SMILES)	half-life [1] [min]	solubility [2] [µg/mL]	CLint scaled [3] [mL/min/kg]	IC50 (Coagulation factor X) [nM]	Activity (Plasma) [µM]	further results
CN1CCc2nc(C(=O)N[C@@H]3CCCC[C@@H]3NC(=O)c3cc4cc(Cl)ccc4[nH]3)sc2C1	6.42	16 (≈ 33.9 µM)	97.2			
COC(=O)CN1CC[C@H](NC(=O)c2cc3cc(Cl)ccc3[nH]2)[C@H](NC(=O)c2nc3c(s2)CN(C)CC3)C1		28 (≈ 51.4 µM)		56	2.1	
CN1CCc2nc(C(=O)N[C@@H]3CN(C(=O)NC(C)(C)C)CC[C@@H]3NC(=O)c3cc4cc(Cl)ccc4[nH]3)sc2C1		39 (≈ 68.2 µM)		4.8	0.78	
COCC(=O)N1CC[C@H](NC(=O)c2cc3cc(Cl)ccc3[nH]2)[C@H](NC(=O)c2nc3c(s2)CN(C)CC3)C1		510 (≈ 936 µM)		5.8	0.78	inhibition in vivo at 10 mg/kg (Rattus norvegicus [4]): 50%; inhibition in vivo at 10 mg/kg (Rattus norvegicus [5]): 38%; inhibition in vivo at 10 mg/kg (Rattus norvegicus [6]): 16%; inhibition in vivo at 10 mg/kg (Rattus norvegicus [7]): 68%
CCNC(=O)N1CC[C@H](NC(=O)c2cc3cc(Cl)ccc3[nH]2)[C@H](NC(=O)c2nc3c(s2)CN(C)CC3)C1		220 (≈ 404 µM)		7.8	0.8	inhibition in vivo at 10 mg/kg (Rattus norvegicus [4]): 11.4%; inhibition in vivo at 10 mg/kg (Rattus norvegicus [5]): 5.3%; inhibition in vivo at 10 mg/kg (Rattus norvegicus [6]): 4.3%; inhibition in vivo at 10 mg/kg (Rattus norvegicus [7]): 16.7%
CN1CCc2nc(C(=O)N[C@@H]3CN(CC(=O)O)CC[C@@H]3NC(=O)c3cc4cc(Cl)ccc4[nH]3)sc2C1		723 (≈ 1360 µM)		26	1.8	
CN1CCc2nc(C(=O)N[C@@H]3CCCC[C@@H]3NC(=O)c3cc4cc(Cl)ccc4[nH]3)sc2C1.Cl						AUC(0-t) at 24 h [8]: 56.6 ng·h/mL; Cmax [9]: 23.3 ng/mL; Tmax [10]: 120 min
COCC(=O)N1CC[C@H](NC(=O)c2cc3cc(Cl)ccc3[nH]2)[C@H](NC(=O)c2nc3c(s2)CN(C)CC3)C1.Cl						AUC(0-t) at 24 h [8]: 83.6 ng·h/mL; Cmax [9]: 36.4 ng/mL; Tmax [10]: 72 min
COCC(=O)N1CCC(NC(=O)c2cc3cc(Cl)ccc3[nH]2)C(NC(=O)c2nc3c(s2)CN(C)CC3)C1 (racemic)	13.6		45.9			
CC(=O)N1CCC(NC(=O)c2cc3cc(Cl)ccc3[nH]2)C(NC(=O)c2nc3c(s2)CN(C)CC3)C1 (racemic)	6.54	421 (≈ 817 µM)	95.4			
CN1CCc2nc(C(=O)NC3CN(C(=O)N(C)C)CCC3NC(=O)c3cc4cc(Cl)ccc4[nH]3)sc2C1 (racemic)	6.73		92.7			
CCOC(=O)N1CCC(NC(=O)c2nc3c(s2)CN(C)CC3)C(NC(=O)c2cc3cc(Cl)ccc3[nH]2)C1 (racemic)		37 (≈ 67.9 µM)		110	11	
CN1CCc2nc(C(=O)NC3CNCCC3NC(=O)c3cc4cc(Cl)ccc4[nH]3)sc2C1 (racemic)		996 (≈ 2110 µM)		62	1.3	
CN1CCc2nc(C(=O)NC3CCN(C(=O)OC(C)(C)C)CC3NC(=O)c3cc4cc(Cl)ccc4[nH]3)sc2C1 (racemic)		< 1		130	6.2	
CN1CCc2nc(C(=O)NC3CN(C(=O)NC(C)(C)C)CCC3NC(=O)c3cc4cc(Cl)ccc4[nH]3)sc2C1 (racemic)	6.24		99.9			
CN1CCc2nc(C(=O)NC3CN(C(=O)OC(C)(C)C)CCC3NC(=O)c3cc4cc(Cl)ccc4[nH]3)sc2C1 (racemic)	4.44	3 (≈ 5.23 µM)	140	10	3.5	
CN1CCc2nc(C(=O)NC3CN(S(C)(=O)=O)CCC3NC(=O)c3cc4cc(Cl)ccc4[nH]3)sc2C1 (racemic)		103 (≈ 187 µM)		28	2.5	

— ChEMBL document CHEMBL1143176, “Design, synthesis, and biological activity of piperidine diamine derivatives as factor Xa inhibitor” (Bioorg Med Chem Lett, 2008)
